Experimental data: ChEMBL document CHEMBL4028910, “Discovery of Small-Molecule Inhibitors of Ubiquitin Specific Protease 7 (USP7) Using Integrated NMR and in Silico Techniques” (J Med Chem, 2017)
pEC50, pIC50, pKd: −log10 of the molar value.

These compounds were tested against T1, Ubiquitin carboxyl-terminal hydrolase 7 (Homo sapiens, UniProt Q93009) (assay: Inhibition of native full length C-terminal USP7 (unknown origin) using ubiquitin-Rho110 as substrate incubated for 1 hr by fluorescence assay).
T1 sequence (Q93009 whole entry): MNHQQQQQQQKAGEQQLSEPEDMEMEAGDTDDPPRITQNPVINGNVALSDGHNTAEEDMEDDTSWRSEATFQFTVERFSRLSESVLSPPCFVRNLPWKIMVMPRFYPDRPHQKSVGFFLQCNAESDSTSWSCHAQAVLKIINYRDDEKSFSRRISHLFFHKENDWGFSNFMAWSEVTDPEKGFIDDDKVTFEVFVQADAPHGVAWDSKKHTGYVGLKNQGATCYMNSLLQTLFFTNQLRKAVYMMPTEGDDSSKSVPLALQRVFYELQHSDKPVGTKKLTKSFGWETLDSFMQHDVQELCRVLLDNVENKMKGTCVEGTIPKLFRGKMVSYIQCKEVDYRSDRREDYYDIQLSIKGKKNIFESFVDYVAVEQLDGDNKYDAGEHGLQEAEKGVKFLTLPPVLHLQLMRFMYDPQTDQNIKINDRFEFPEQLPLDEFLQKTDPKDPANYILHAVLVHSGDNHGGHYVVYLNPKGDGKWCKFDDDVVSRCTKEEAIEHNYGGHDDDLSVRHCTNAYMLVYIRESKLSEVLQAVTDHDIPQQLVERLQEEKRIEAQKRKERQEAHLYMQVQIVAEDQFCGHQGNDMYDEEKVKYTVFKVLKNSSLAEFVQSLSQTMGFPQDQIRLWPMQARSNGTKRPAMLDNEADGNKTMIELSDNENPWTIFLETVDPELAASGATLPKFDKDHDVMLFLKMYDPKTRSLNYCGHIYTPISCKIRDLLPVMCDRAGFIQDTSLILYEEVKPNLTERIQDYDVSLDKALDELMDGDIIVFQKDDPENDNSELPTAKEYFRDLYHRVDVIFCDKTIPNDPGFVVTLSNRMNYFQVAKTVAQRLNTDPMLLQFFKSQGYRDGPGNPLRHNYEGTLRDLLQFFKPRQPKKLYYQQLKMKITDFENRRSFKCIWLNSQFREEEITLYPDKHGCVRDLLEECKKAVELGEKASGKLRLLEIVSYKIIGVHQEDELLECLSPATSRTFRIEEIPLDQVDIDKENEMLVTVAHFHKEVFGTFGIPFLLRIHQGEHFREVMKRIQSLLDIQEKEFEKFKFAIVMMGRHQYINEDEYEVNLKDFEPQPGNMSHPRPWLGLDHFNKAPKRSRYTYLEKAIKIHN

Row | SMILES | pIC50
1 | CCCc1c(-c2ccc(O)cc2)cnc(N)c1-c1ccc(O)cc1 | 4.87
2 | Nc1ncc(-c2ccccc2Cl)cc1-c1ccc(O)cc1 | 4.48
3 | CCc1c(-c2ccc(O)cc2)cnc(N)c1-c1cccc(C#N)c1 | 5.28
4 | Fc1cccc(OCC2CCNCC2)c1 | < 2.70
5 | CC(=O)Nc1cccc(-c2cnc(N)c(-c3ccc(O)cc3)c2)c1 | 4.82
6 | Nc1ncc(-c2ccc(O)cc2)cc1-c1ccc(O)cc1 | 4.95
7 | Cc1c(-c2ccc(O)cc2)cnc(N)c1-c1ccc(O)cc1 | 5.12
8 | CCc1c(-c2cccc(C#N)c2)cnc(N)c1-c1ccc(O)cc1 | 5.60
9 | CCc1c(-c2ccc(O)cc2)cnc(N)c1-c1ccccc1 | 4.65
10 | CCc1c(-c2ccc(O)cc2)cnc(N)c1-c1ccc2[nH]ncc2c1 | 6.21
11 | N#Cc1c(-c2ccc(O)cc2)cnc(N)c1-c1ccc(O)cc1 | < 3.70
12 | CC(C)c1c(-c2ccc(O)cc2)cnc(N)c1-c1ccc(O)cc1 | 4.67
13 | CCc1c(-c2ccc(C(=O)NC)nc2)cnc(N)c1-c1ccc(O)cc1 | 5.87
14 | Oc1ccc(-c2cncc(-c3ccc(O)cc3)c2)cc1 | < 4.30
15 | CCc1c(-c2ccccc2)cnc(N)c1-c1ccc(O)cc1 | 5.02
16 | Nc1nc(N)c(-c2ccc(O)cc2)cc1-c1ccc(O)cc1 | 5.07
17 | CCc1c(-c2ccc(O)cc2)cnc(N)c1-c1ccc(O)cc1 | 5.60

The remaining lines, values ahead:

Row | pIC50 | SMILES
18 | 6.32 | CCc1c(-c2ccc3cn[nH]c3c2)cnc(N)c1-c1ccc(O)cc1
19 | 3.88 | CN1CCC(c2noc(-c3ccc(O)cc3)n2)C1 (stereo unspecified)
20 | 4.74 | Oc1ccc(-c2ncc(C3CCNCC3)o2)c(F)c1
21 | 4.01 | Oc1ccc(-c2nc(C3CCNCC3)no2)cc1
22 | 3.88 | Oc1ccc(-c2nc(C3CCNC3)no2)cc1 (stereo unspecified)
23 | 4.48 | Oc1ccc(-c2ncc(C3CCNCC3)o2)cc1
24 | 4.10 | CN1CCC(c2noc(-c3ccc(O)cc3)n2)CC1
25 | 4.07 | Oc1ccc(-c2nc(C3CCNCC3)co2)cc1

The compounds below were run against T1, Ubiquitin carboxyl-terminal hydrolase 7 (assay: Binding affinity to human His-tagged and [15N-13C-2H], delta1[13CH3]-Ile, [13CH3]-Leu/Val and [13CH3]-Met-labeled USP7-catalytic domain (208 to 554 residues) expressed in Escherichia coli Rosetta 2 (DE3) cells by 2D[1H-15N]-based TROSY spectrum NMR analysis).

Row | pKd | SMILES
26 | 4.57 to 4.92 | Oc1ccc(-c2nc(C3CCNCC3)no2)cc1
27 | 4.57 to 4.92 | CN1CCC(c2noc(-c3ccc(O)cc3)n2)CC1

These compounds were tested against T1, Ubiquitin carboxyl-terminal hydrolase 7 (assay: Inhibition of USP7 in human SJSA cells assessed as increase in ubiquitinated MDM2 level after 16 hrs in presence of MG132 by MSD assay).
Type: cell-based

Row | pEC50 | SMILES
28 | 4.43 | CCc1c(-c2ccc(O)cc2)cnc(N)c1-c1cccc(C#N)c1
29 | 6.52 | CCc1c(-c2ccc3[nH]ncc3c2)cnc(N)c1-c1ccc(O)cc1
30 | 5.59 | CCc1c(-c2ccc(C(=O)NC)nc2)cnc(N)c1-c1ccc(O)cc1
31 | 4.44 | Nc1nc(N)c(-c2ccc(O)cc2)cc1-c1ccc(O)cc1
